From PubChem BioAssay (NCI)
“And” between values parts separate entries of the source, which are not always exact repeats. Equal values may be shown once.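 1) Cells in 96-well plates. 2) Compound, 48 h, 5 concentrations. 3) Linear interpolation between surrounding doses. 4) Unreached endpoint = highest concentration. At the GI50, growth is halved. TGI marks complete inhibition of growth.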

Assays:
Experiment in all cases: inhibition of tumour cell growth, NCI panel, 48 h
[1] = system: UO-31 renal
[2] = system: SNB-19 CNS
[3] = system: MDA-MB-435
[4] = system: MALME-3M melanoma
[5] = system: OVCAR-8 ovarian
[6] = system: A498 renal
[7] = system: HOP-92 NSCLC
[8] = system: HCT-116 colon
[9] = system: UACC-62 melanoma
[10] = system: MDA-MB-231 breast

| SMILES | GI50 [1] | TGI [1] | TGI [2] | GI50 [3] | TGI [3] | GI50 [4] | TGI [4] | TGI [5] | GI50 [6] | TGI [6] | GI50 [7] | TGI [7] | GI50 [8] | TGI [8] | TGI [9] | TGI [10] | GI50 [2] | GI50 [5] | GI50 [9] | GI50 [10] |
| --- | --- | --- | --- | --- | --- | --- | --- | --- | --- | --- | --- | --- | --- | --- | --- | --- | --- | --- | --- | --- |
| COc1ccc2c(c1)c[n+](C)c1c3cc(OC)c(OC)cc3ccc21 | 2.22 µM and 9.28 µM | 5.13 µM and 22.5 µM | 8.1 µM and 13.8 µM | 1.51 µM and 5.1 µM | 2.98 µM and 20 µM | 3.71 µM and 12.4 µM | 14.9 µM and 26 µM | 4.61 µM and 6.34 µM | 2.02 µM and 19.7 µM | 6.85 µM and 57.7 µM | 3.69 µM and 14.6 µM | 9.98 µM and 35.1 µM | 1.08 µM and 2.48 µM | 2.32 µM and 10 µM | 23.9 µM | 2.83 µM and 3.07 µM |  |  |  |  |
| COc1ccc(C(O)(CCC(C)C)C(CN2CCOCC2)c2ccc(Cl)cc2)cc1 (centres undefined) | 11.3 µM | 25.9 µM | 52.4 µM | 14.9 µM | 37.3 µM | 19.1 µM | 39.5 µM | 41.5 µM | 10.9 µM | 23.4 µM | 8 µM | 21.7 µM | 4.68 µM | 19.1 µM | 29.1 µM | 27.2 µM | 14.8 µM | 16.1 µM | 13.4 µM | 12.1 µM |
| O=C(O)c1ccc(C(=O)O)c2c(C(=O)O)ccc(C(=O)O)c12 |  | > 100 µM | > 100 µM |  | > 100 µM |  | > 100 µM | > 100 µM |  | > 100 µM |  | > 100 µM |  | > 100 µM | > 100 µM | > 100 µM |  |  |  |  |
| BrCc1cccc(C[P+](c2ccccc2)(c2ccccc2)c2ccccc2)c1 | > 100 µM | > 100 µM | > 100 µM | 8.38 µM | > 100 µM | 82.8 µM | > 100 µM | > 100 µM | 59.5 µM | > 100 µM | 2.84 µM | 52.4 µM | 6.02 µM | > 100 µM | > 100 µM | > 100 µM | 12.1 µM | 6.65 µM | 7.97 µM | 33 µM |
| CCN(Cc1ccc(F)cc1)c1ccc(CO)c(Br)c1 | 2.89 µM | > 40.3 µM | 44.2 µM | 19.4 µM | 49.6 µM | 16.9 µM | 38 µM | 47.1 µM | 0.0272 µM | 0.136 µM | 0.173 µM | 6.23 µM | 0.046 µM | 12.6 µM | 0.342 µM | 36.5 µM | 15.7 µM | 9.64 µM | 0.0522 µM | 14.2 µM |
| CN(C)C(=S)Sc1ccc([N+](=O)[O-])cc1[N+](=O)[O-] | 1.79 µM | 6.29 µM | 25.1 µM | 1.54 µM | 5.36 µM | 1.38 µM | 3.17 µM | 12 µM | 9.47 µM | 22 µM | 2.95 µM | 11.2 µM | 1.54 µM | 3.7 µM | 5.97 µM | 11.9 µM | 11 µM | 3.27 µM | 1.71 µM | 3.04 µM |
| CCc1c(Cl)c(C)cc(O)c1Cl |  | 56.8 µM | > 100 µM |  | > 100 µM |  | > 100 µM | > 100 µM |  | 54.7 µM |  | 92.3 µM |  | > 100 µM | > 100 µM | > 100 µM |  |  |  |  |
| O=[N+]([O-])c1cccc2ccc(N/N=C/c3ccccc3O)nc12 | > 39.9 µM | > 100 µM | > 100 µM | > 100 µM | > 100 µM | > 100 µM | > 100 µM | > 100 µM | > 100 µM | > 100 µM | > 100 µM | > 100 µM | 2.19 µM | > 100 µM | > 100 µM | > 100 µM | > 100 µM | > 100 µM | > 100 µM | > 100 µM |
| Cc1ccc(Nc2oc(-c3ccccc3)nc2[P+](c2ccccc2)(c2ccccc2)c2ccccc2)cc1 | 0.44 µM | 1.65 µM | 2.94 µM | 0.606 µM | 1.97 µM | 0.459 µM | 1.43 µM | 3.34 µM | 0.697 µM | 2.36 µM | 0.209 µM | 1.02 µM | 0.377 µM | 1.39 µM | 2.01 µM | 2.17 µM | 1.04 µM | 1.04 µM | 0.687 µM | 0.788 µM |
| COC(=O)c1ccc2c(c1)/C(=C\c1cc(Br)c(O)c(Br)c1)C(=O)N2 | 6.84 µM | > 25 µM | > 25 µM | 3.1 µM | > 19.4 µM | 2.08 µM | 13.8 µM | > 25 µM | 3.48 µM | 11 µM | 2.45 µM | 17.4 µM | 8.29 µM | > 25 µM | 8.8 µM | > 25 µM | 12.4 µM | 13 µM | 2.77 µM | 6.83 µM |
| O=C(NNc1ccccc1)C(=O)NNc1ccccc1 | > 100 µM | > 100 µM | > 100 µM | 1.84 µM | > 100 µM | > 100 µM | > 100 µM | > 100 µM | > 100 µM | > 100 µM | > 100 µM | > 100 µM | 6.42 µM | > 100 µM | > 100 µM | > 100 µM | > 100 µM | > 100 µM | 0.43 µM | 24.1 µM |
| CN(C)C/C=C/C(=O)Nc1cc2c(Nc3ccc(F)c(Cl)c3)ncnc2cc1O[C@H]1CCOC1 | 0.762 µM and 0.322 µM | 16.4 µM and > 10 µM | 15.7 µM and > 10 µM | 0.603 µM and 0.882 µM | 7.37 µM and > 5.68 µM | 2.1 µM and 1.22 µM | 4.16 µM and 3.95 µM | 5.37 µM and > 6.85 µM | 0.155 µM and 0.106 µM | 2.55 µM and 2.3 µM | 0.227 µM | 4.44 µM | 0.448 µM and 0.679 µM | 1.93 µM and > 5.87 µM | 7.49 µM and > 10 µM | 7.06 µM and 4.75 µM | 2.76 µM and 2.42 µM | 1.36 µM and 1.88 µM | 2.39 µM and 3.28 µM | 1.2 µM and 0.806 µM |
| CC12CCC3c4ccc(O)cc4CCC3C1C/C(=N\O)C2O (centres undefined) |  | > 100 µM | > 100 µM |  | > 100 µM |  | > 100 µM | > 100 µM |  | > 100 µM |  | > 100 µM |  | > 100 µM | > 100 µM | > 100 µM |  |  |  |  |
| COc1ccc(-c2nsc3c2NC(=O)CC3c2cccc(OC)c2)cc1 (centres undefined) | 3.1 µM | > 100 µM | > 100 µM | 0.282 µM | 0.868 µM | 2.32 µM | 66.1 µM | > 100 µM | 0.408 µM | 5.02 µM | 2.31 µM | 43 µM | 0.531 µM | > 100 µM | > 100 µM | > 100 µM | 3.47 µM | 3.22 µM | 0.865 µM | 1.17 µM |
| C=COC(=O)N[C@H]1CCc2cc(OC)c(OC)c(OC)c2-c2ccc(SC)c(=O)cc21 |  | 74.9 µM | 24.8 µM |  | < 0.01 µM |  | > 100 µM | > 80.7 µM |  | 0.395 µM |  | 22.8 µM |  | 0.74 µM | > 75 µM | 1.88 µM |  |  |  |  |
| C=CCc1ccc(O)c(-c2ccc(O)c(CC=C)c2)c1 | 12.4 µM | 27.3 µM | 37 µM | 14.7 µM | 31.5 µM | 17.1 µM | 34.9 µM | > 60.9 µM | 17.4 µM | 31.9 µM | 13.9 µM | 31.1 µM | 20 µM | > 54 µM | 30 µM | 25.6 µM | 21.1 µM | 32.8 µM | 16 µM | 12.1 µM |
| CN(C)c1ccc(N=Nc2ccccn2)c(O)c1 | 0.215 µM |  | > 100 µM | 0.556 µM | > 100 µM | 1.44 µM | > 100 µM | > 100 µM | 3.02 µM | 19.1 µM | 0.666 µM | 50.2 µM | 0.254 µM | > 71.7 µM |  | > 100 µM | 0.501 µM | 0.321 µM | 0.369 µM | 0.446 µM |
| CCc1ccc(/C=C/c2ccc(O)c3ncccc23)[n+](C)c1 | 7.4 µM | > 100 µM | > 100 µM | 4.49 µM | > 100 µM | 13.7 µM | > 100 µM | > 100 µM | 1.42 µM | > 63 µM | 0.0293 µM | 3.54 µM | 4.02 µM | > 100 µM | > 100 µM | > 100 µM | 11.5 µM | 0.668 µM | > 21.5 µM | 57.9 µM |
| O=C1CCC/C=C\C[C@H]2C=CC(=O)/C2=C/C[C@H](C/C=C\CC(F)(F)F)O1 | 0.298 µM | 0.624 µM | 3.71 µM | 0.449 µM | 1.42 µM | 0.587 µM | 2.29 µM | 1.34 µM | 2.56 µM | 4.89 µM | 1.85 µM | 5.01 µM | 0.311 µM | 0.614 µM | 0.765 µM | 5.63 µM | 0.867 µM | 0.423 µM | 0.28 µM | 0.722 µM |
| S=c1[nH]c2c(Cl)c(Cl)c(Cl)c(Cl)c2[nH]1 |  | 43.2 µM | 81.3 µM |  | 48.8 µM |  | 38.5 µM | 57.4 µM |  | 46.5 µM |  | 53.6 µM |  | 46.8 µM | 33.3 µM | 47.9 µM |  |  |  |  |
| C[C@@]12CCC[C@@](C)(C(=O)O)C1CC[C@]13CC(=O)[C@](CO)(C1)[C@@H](O)CC32 (some centres undefined) | > 100 µM | > 100 µM | > 100 µM | > 100 µM | > 100 µM | > 100 µM | > 100 µM | > 100 µM | > 100 µM | > 100 µM | > 100 µM | > 100 µM | > 100 µM | > 100 µM | > 100 µM | > 100 µM | > 100 µM | > 100 µM | > 100 µM | > 100 µM |
| C[C@H]1CN[C@@H]2[C@@H](C)[C@H]3[C@@H](C[C@H]4[C@@H]5CC[C@H]6C[C@@H](N)CC[C@]6(C)[C@H]5CC[C@]34C)O[C@@]2(O)C1 |  | 5.79 µM | 6.96 µM |  | 3.71 µM |  | 3.23 µM | 4.78 µM |  | 1.44 µM |  | 11.4 µM |  | 3.14 µM | 4.6 µM | 4.3 µM |  |  |  |  |
| Nc1c(C(=O)c2ccccc2)cnn1-c1ccc(F)cc1 | > 25 µM | > 25 µM | > 25 µM | > 25 µM | > 25 µM | > 25 µM | > 25 µM | > 25 µM | > 25 µM | > 25 µM | > 19.3 µM | > 25 µM | > 25 µM | > 25 µM | > 25 µM | > 25 µM | > 25 µM | > 25 µM | > 25 µM | > 25 µM |
